Assay results taken from ChEMBL document CHEMBL1133457 (J Med Chem, 2000).

What was measured:
[1] = biological target: T1, Prostaglandin G/H synthase 2 (Homo sapiens, UniProt P35354)
T1 sequence (P35354 whole entry): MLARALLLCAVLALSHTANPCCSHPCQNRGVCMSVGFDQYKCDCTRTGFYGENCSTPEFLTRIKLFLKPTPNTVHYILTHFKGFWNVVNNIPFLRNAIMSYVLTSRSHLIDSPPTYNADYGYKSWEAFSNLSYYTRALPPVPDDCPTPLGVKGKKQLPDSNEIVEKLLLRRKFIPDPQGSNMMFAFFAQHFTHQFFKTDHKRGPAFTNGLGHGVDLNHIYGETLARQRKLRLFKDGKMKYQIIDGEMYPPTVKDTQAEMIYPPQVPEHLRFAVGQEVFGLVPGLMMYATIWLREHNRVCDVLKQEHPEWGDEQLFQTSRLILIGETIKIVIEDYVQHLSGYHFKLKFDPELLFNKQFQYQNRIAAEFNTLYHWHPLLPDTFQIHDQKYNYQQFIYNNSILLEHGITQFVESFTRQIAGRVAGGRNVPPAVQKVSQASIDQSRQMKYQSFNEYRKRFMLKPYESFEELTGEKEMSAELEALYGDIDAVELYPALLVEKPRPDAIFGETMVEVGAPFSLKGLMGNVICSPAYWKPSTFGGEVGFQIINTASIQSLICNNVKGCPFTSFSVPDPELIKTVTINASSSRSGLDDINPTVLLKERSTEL

[2] = biological target: T2, Prostaglandin G/H synthase 1 (Ovis aries, UniProt P05979)
T2 sequence (P05979 whole entry): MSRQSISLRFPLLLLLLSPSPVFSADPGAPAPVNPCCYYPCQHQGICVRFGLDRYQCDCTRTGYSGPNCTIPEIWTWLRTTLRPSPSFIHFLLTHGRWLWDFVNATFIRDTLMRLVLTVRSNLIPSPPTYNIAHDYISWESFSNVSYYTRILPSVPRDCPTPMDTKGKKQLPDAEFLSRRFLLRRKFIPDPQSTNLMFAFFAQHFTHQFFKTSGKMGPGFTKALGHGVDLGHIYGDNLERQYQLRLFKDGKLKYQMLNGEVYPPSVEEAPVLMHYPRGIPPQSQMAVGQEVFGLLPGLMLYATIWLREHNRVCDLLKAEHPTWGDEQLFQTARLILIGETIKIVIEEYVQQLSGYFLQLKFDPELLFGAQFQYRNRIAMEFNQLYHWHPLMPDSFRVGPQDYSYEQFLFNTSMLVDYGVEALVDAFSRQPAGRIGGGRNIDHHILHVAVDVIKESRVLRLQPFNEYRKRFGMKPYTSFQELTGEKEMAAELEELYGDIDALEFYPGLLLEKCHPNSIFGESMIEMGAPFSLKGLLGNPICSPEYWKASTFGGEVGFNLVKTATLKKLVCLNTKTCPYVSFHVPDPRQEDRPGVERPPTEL

| SMILES | IC50 [1] | IC50 [2] |
| --- | --- | --- |
| COc1ccc2c(c1)c(CC(=O)Nc1cc(C)c(C(=O)Nc3ccccc3)cc1OC)c(C)n2C(=O)c1ccc(Cl)cc1 | 0.6 µM | 17 µM |
| COc1ccc2c(c1)c(CC(=O)N(C)C)c(C)n2C(=O)c1ccc(Cl)cc1 | – | > 66 µM |
| COc1ccc2c(c1)c(CC(=O)NCCc1ccccc1)cn2C(=O)c1ccc(Cl)cc1 | > 66 µM | > 66 µM |
| COc1ccc2c(c1)c(CC(=O)Nc1cncc(Cl)c1)c(C)n2C(=O)c1ccc(Cl)cc1 | 0.047 µM | > 66 µM |
| COc1ccc2c(c1)c(CC(=O)OCCNC(=O)OC(C)(C)C)c(C)n2C(=O)c1ccc(Cl)cc1 | 0.045 µM | > 66 µM |
| COc1ccc2c(c1)c(CC(=O)NCCOC(=O)/C=C/c1ccc(N(C)C)cc1)c(C)n2C(=O)c1ccc(Cl)cc1 | – | > 66 µM |
| COc1ccc2c(c1)c(CC(=O)Nc1ccc(C(N)=O)cc1)c(C)n2C(=O)c1ccc(Cl)cc1 | 0.14 µM | > 66 µM |
| COC(=O)[C@@H](C)NC(=O)Cc1c(C)n(C(=O)c2ccc(Cl)cc2)c2ccc(OC)cc12 | 0.4 µM | – |
| COc1ccc2c(c1)c(CC(=O)OCCc1ccccc1)cn2C(=O)c1ccc(Cl)cc1 | > 66 µM | > 66 µM |
| COc1ccc2c(c1)c(CC(=O)NNCc1ccccc1)c(C)n2C(=O)c1ccc(Cl)cc1 | 2.5 µM | > 66 µM |

The next lines start with the values.

| IC50 [1] | IC50 [2] | SMILES |
| --- | --- | --- |
| 0.05 µM | 0.06 µM | COc1ccc2c(c1)c(CC(=O)NOCc1ccccc1)c(C)n2C(=O)c1ccc(Cl)cc1 |
| 0.04 µM | – | COc1ccc2c(c1)c(CC(=O)OCCc1ccccc1)c(C)n2C(=O)c1ccc(Cl)cc1 |
| > 1 µM | > 66 µM | COc1ccc2c(c1)c(CC(=O)Nc1cc(OC)c(OC)c(OC)c1)c(C)n2C(=O)c1ccc(Cl)cc1 |
| 5 µM | > 66 µM | COc1ccc2c(c1)c(CC(=O)Oc1cccc3ccccc13)c(C)n2C(=O)c1ccc(Cl)cc1 |
| > 33 µM | > 66 µM | COc1ccc2c(c1)c(CC(=O)N1CCOCC1)c(C)n2C(=O)c1ccc(Cl)cc1 [INDOMETHACIN MORPHOLINYLAMIDE] |
| 0.06 µM | 4 µM | COc1ccc2c(c1)c(CC(=O)NOCc1ccc([N+](=O)[O-])cc1)c(C)n2C(=O)c1ccc(Cl)cc1 |
| 25 µM | > 66 µM | CCN(CC)C(=O)Cc1c(C)n(C(=O)c2ccc(Cl)cc2)c2ccc(OC)cc12 |
| – | > 66 µM | COc1ccc2c(c1)c(CC(=O)Nc1ncc(C)s1)c(C)n2C(=O)c1ccc(Cl)cc1 |
| 0.05 µM | 45 µM | COc1ccc2c(c1)c(CC(=O)Nc1cccnc1Cl)c(C)n2C(=O)c1ccc(Cl)cc1 |
